Drawing on PubChem BioAssay (NCI), this text covers TGI for seven compounds.

Holding throughout (experiment): growth of human tumour cells (NCI), 48 h
In assay [1] the test system is OVCAR-4 ovarian.
The subject of assay [2] is U251 CNS.
In assay [3] the test system is SK-MEL-2 melanoma.
Assay [4] concerns UACC-257 melanoma.
Assay [5] deals with HOP-92 NSCLC.
Assay [6] has as its system K-562 leukemia.
Assay [7] relates to SW-620 colon.
Assay [8] has as its system UACC-62 melanoma.
For assay [9], the system named is CCRF-CEM leukemia.
In assay [10] the test system is HOP-62 NSCLC.
In assay [11] the test system is HL-60(TB) leukemia.
Assay [12] relates to SK-MEL-5 melanoma.
The test system of assay [13] is SF-268 CNS.

SMILES strings stand for the structures.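 Five compound concentrations were applied to cells in 96-well plates for 48 hours; endpoints were derived by simple linear interpolation of the resulting dose-response curve. At the TGI there is no net growth.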

Regarding `CSC(=S)Nc1cc(C)ccn1`, the TGI in assay [1], in assay [2], in [3], in assay [4], in [5] and in assay [6] was over 100 µM each time. Further, the TGI in assay [7] was over 100 µM; in [8] it was over 100 µM; in [9] it was over 100 µM; in assay [10], over 100 µM; in [11], over 100 µM; in assay [12], 46.5 µM. This compound also yielded a TGI in [13] of over 100 µM.
As to `Cc1ccc(CCCC(=O)O)cc1C`, the TGI in assay [1], in assay [2], in assay [3], in assay [4], in assay [5] and in [6] was over 100 µM in each case. The TGI in assay [7], in [8], in [9], in assay [10], in [11] and in [12] was over 100 µM in each case. Moreover, the TGI in assay [13] is over 100 µM.
In the case of `O=C(O)c1ccccc1/C=C1\Cc2ccc3c(c2C1=O)CCCC3`, the TGI in assay [1] is over 100 µM; in assay [2] it was over 100 µM; in assay [3], 88.7 µM; in assay [4] it was 68.4 µM; in [5] it was 47.6 µM; in assay [6] it was over 100 µM. The TGI was over 100 µM in [7]; 46.5 µM in assay [8]; 66.2 µM in assay [9]; over 100 µM in assay [10]; 62.3 µM in [11]; 37 µM in [12]. The TGI in assay [13] was over 100 µM.
Regarding `COC(=O)/C=C1/OC(c2ccccc2)=CC1=O`, the TGI in assay [1] is 31.2 µM; in assay [2] it was 32.1 µM; in assay [3], 47.9 µM; in assay [4], over 52.7 µM; in assay [5], 52.8 µM; in assay [6] it was 44.6 µM. Moreover, the TGI in assay [7] is 32.3 µM; in [8], 40 µM; in [9], over 61.2 µM; in assay [10], 44.7 µM; in assay [11] it was 6.14 µM; in assay [12], 51.3 µM. Moreover, the TGI in assay [13] stood at 44.7 µM.
Regarding `O=C1NC(c2ccccc2)C1N(Cc1ccccc1)Cc1ccccc1` (stereo unspecified), the TGI in assay [1], in assay [2], in assay [3], in [4], in assay [5] and in assay [6] was over 100 µM throughout. Besides, the TGI in assay [7], in assay [8], in assay [9], in assay [10], in assay [11] and in assay [12] was over 100 µM throughout. For the same compound, in [13], the TGI is over 100 µM.
In the case of `CC1(c2nc3ccccc3[nH]2)CCC(CO)C(C)(C)O1` (stereo unspecified), the TGI in assay [1], in [2], in [3], in assay [4], in [5] and in [6] was over 100 µM in each case. For the same compound, the TGI in assay [7], in [8], in [9], in assay [10], in assay [11] and in assay [12] was over 100 µM throughout. In addition, in [13], the TGI was over 100 µM.
In the case of `C/C(O)=C/c1nc2sc(C)c(C)c2c(=O)s1`, the TGI was over 100 µM in assay [1]; over 100 µM in [2]; 65.1 µM in assay [3]; over 100 µM in assay [4]; over 100 µM in assay [5]; over 100 µM in assay [6]. The TGI in assay [7], in assay [8], in assay [9], in [10], in [11] and in assay [12] was over 100 µM in each case. In assay [13], the TGI was over 100 µM.
